Where a name gives a salt, the structure may show the parent alone. Where only a bound is given, the exact number is not on record here.

What all share (assay): MIC, standard broth dilution method in microtitre
Type in all cases: cell-based

The test system of one assay is E. faecalis ATCC 29212. Conditions: Enterococcus faecalis, ATCC29212. As to the method:
(§1) Using a standard broth dilution method in microtitre, compounds were tested for antibacterial activity. The compounds in the above examples gave minimum inhibitory concentrations (MICs) less than 1 microgram per millilitre against erythromycin-sensitive and erythromycin-resistant strains of Streptococcus pneumoniae and Streptococcus pyogenes.
(§2) In addition, the MIC (μg/mL) of test compounds against various organisms was determined including:
(§3) S. aureus Smith ATCC 13709, S. pneumoniae SP030, S. pyogenes 3565, E. faecalis ATCC 29212, H. influenzae ATCC 49247, M. catarrhalis ATCC 23246.

The subject of another assay is H. influenzae ATCC 49247. Conditions: Haemophilus influenzae, ATCC49247; H. influenzae ATCC 49247; broth dilution in microtitre; read-out: MIC. As to the method:
as §1, §2, §3
(In general: In broth dilution the organism is exposed to a series of concentrations in liquid medium.)

Assay [1] deals with M. catarrhalis ATCC 23246. Conditions: Moraxella catarrhalis, ATCC23246. As to the method:
as §1, §2, §3

In assay [2] the test system is S. aureus Smith ATCC 13709. Conditions: Staphylococcus aureus, ATCC13709. As to the method: as §1, §2, §3
The next assay concerns S. pneumoniae SP030. Conditions: Streptococcus pneumoniae. As to the method: as §1, §2, §3
Another assay relates to S. pyogenes 3565. Conditions: Streptococcus pyogenes. As to the method: as §1, §2, §3

Consider `CC[C@H]1OC(=O)[C@H](C)[C@@H](O[C@H]2C[C@@](C)(OC)[C@@H](OC(=O)CCNCCSc3ccc4c(=O)c(C(=O)O)cn(CC)c4c3)[C@H](C)O2)[C@@H](C)[C@@H](O[C@@H]2O[C@H](C)C[C@H](N(C)C)[C@H]2O)[C@](C)(O)C[C@@H](C)CN(C)[C@H](C)[C@@H](O)[C@]1(C)O` [Example 1, 4″-O-{3-[2-(3-Carboxy-1-ethyl-4-oxo-1,4-dihydro-7-quinolinylsulfanyl)ethylamino]propionyl}-azithromycin], for which the MIC was not above 1 µg/mL in the assay with E. faecalis ATCC 29212; not above 2 µg/mL with H. influenzae ATCC 49247; not above 2 µg/mL in assay [1]; not above 1 µg/mL in assay [2]; not above 1 µg/mL with S. pneumoniae SP030; not above 1 µg/mL against S. pyogenes 3565.
Consider `CC[C@@H]1OC(=O)[C@H](C)[C@@H](O[C@H]2C[C@@](C)(OC)[C@@H](OC(=O)CCNCCSc3ccc4c(=O)c(C(=O)O)cn(CC)c4c3)[C@@H](C)O2)[C@@H](C)[C@H](O[C@H]2O[C@@H](C)C[C@@H](N(C)C)[C@H]2O)[C@](C)(O)C[C@H](C)CN(C)[C@H](C)[C@H]2OC(=O)O[C@]12C` [Example 2, 4″-O-{3-[2-(3-Carboxy-1-ethyl-4-oxo-1,4-dihydro-7-quinolinylsulfanyl)ethylamino]propionyl}-azithromycin-11,12-carbonate], for which the MIC in the assay with E. faecalis ATCC 29212 was not above 1 µg/mL; in the assay with H. influenzae ATCC 49247, not above 2 µg/mL; in assay [1], not above 2 µg/mL; in assay [2], not above 1 µg/mL; with S. pneumoniae SP030, not above 1 µg/mL; with S. pyogenes 3565, not above 1 µg/mL.
On to `CC[C@@H]1OC(=O)[C@H](C)[C@H](O[C@H]2C[C@@](C)(OC)[C@@H](OC(=O)CCNCCSc3ccc4c(=O)c(C(=O)O)cn(CC)c4c3)[C@@H](C)O2)[C@@H](C)[C@H](OC2O[C@@H](C)C[C@@H](N(C)C)[C@H]2O)[C@@](C)(OC)C[C@H](C)C(=O)[C@H](C)[C@@H](O)[C@]1(C)O` (some centres unmarked) [Example 3, 4″-O-{3-[2-(3-Carboxy-1-ethyl-4-oxo-1,4-dihydro-7-quinolinylsulfanyl)ethylamino]propionyl}-6-O-methyl-erythromycin A], for which the MIC (with H. influenzae ATCC 49247; in assay [1]) was not above 2 µg/mL each time.
As for `CC[C@@H]1OC(=O)[C@H](C)[C@H](O[C@H]2C[C@](C)(OC)[C@@H](OC(=O)CCNCCSc3cnc4c(c3)c(=O)c(C(=O)O)cn4CC)[C@@H](C)O2)[C@@H](C)[C@H](O[C@H]2O[C@@H](C)C[C@@H](N(C)C)[C@H]2O)[C@@](C)(O)C[C@H](C)CN(C)[C@H](C)[C@@H](O)[C@@]1(C)O` [Example 4, 4″-O-{3-[2-(3-Carboxy-1-ethyl-4-oxo-1,4-dihydro-[1,8]naphthyridin-6-ylsulfanyl)ethylamino]propionyl}-azithromycin tris trifluoroacetate salt], the MIC in the assay with E. faecalis ATCC 29212 was not above 1 µg/mL; with H. influenzae ATCC 49247, not above 2 µg/mL; in assay [1], not above 2 µg/mL; in assay [2], not above 1 µg/mL; with S. pneumoniae SP030, not above 1 µg/mL; against S. pyogenes 3565 it was not above 1 µg/mL.
For the compound `CC[C@@H]1OC(=O)[C@H](C)[C@H](O[C@@H]2C[C@](C)(OC)[C@H](OC(=O)CCNCCSc3ccc4c(c3)c(=O)c(C(=O)O)cn4CC)[C@H](C)O2)[C@@H](C)[C@H](O[C@@H]2O[C@H](C)C[C@H](N(C)C)[C@@H]2O)[C@](C)(O)C[C@H](C)CN(C)[C@H](C)[C@@H](O)[C@]1(C)O` [Example 10, 4″-O-{3-[2-(3-Carboxy-1-ethyl-4-oxo-1,4-dihydro-6-quinolinysulfanyl)ethylamino]propionyl}-azithromycin], the MIC (in the assay on E. faecalis ATCC 29212; in assay [2]; against S. pneumoniae SP030; against S. pyogenes 3565) was not above 1 µg/mL each time.
`CC[C@@H]1OC(=O)[C@H](C)[C@H](O[C@@H]2C[C@](C)(OC)[C@H](OC(=O)CCNCCOc3cc4c5c(c3)c(=O)c(C(=O)O)cn5CCC4)[C@H](C)O2)[C@@H](C)[C@H](O[C@@H]2O[C@H](C)C[C@H](N(C)C)[C@@H]2O)[C@](C)(O)C[C@H](C)CN(C)[C@H](C)[C@@H](O)[C@]1(C)O` [Example 12, 4″-O-{3-[2-(6-Carboxy-7-oxo-2,3-dihydro-1H,7H-pyrido[3,2,1-ij]quinolin-9-yloxy)ethylamino]propionyl}-azithromycin tris trifluoroacetate salt]: the MIC (with E. faecalis ATCC 29212; in assay [2]; against S. pneumoniae SP030; against S. pyogenes 3565) was not above 1 µg/mL in each case.
With `CC[C@@H]1OC(=O)[C@H](C)[C@H](O[C@@H]2C[C@](C)(OC)[C@H](OC(=O)CCNCCOc3ccc4c(c3)c(=O)c(C(=O)O)cn4CC)[C@H](C)O2)[C@@H](C)[C@H](O[C@@H]2O[C@H](C)C[C@H](N(C)C)[C@@H]2O)[C@](C)(O)C[C@H](C)CN(C)[C@H](C)[C@@H](O)[C@]1(C)O` [Example 14, 4″-O-{3-[2-(3-Carboxy-1-ethyl-4-oxo-1,4-dihydro-6-quinolinyloxy)ethylamino]propionyl}-azithromycin tris trifluoroacetate salt], the MIC (against E. faecalis ATCC 29212; in assay [2]; against S. pneumoniae SP030; in the assay on S. pyogenes 3565) was not above 1 µg/mL throughout.
Turning to `CC[C@H]1OC(=O)[C@H](C)[C@@H](O[C@H]2C[C@@](C)(OC)[C@@H](OC(=O)CCOCCOc3cc4c(=O)c(C(=O)O)cn(C5CC5)c4cc3Cl)[C@H](C)O2)[C@H](C)[C@@H](O[C@@H]2O[C@H](C)C[C@H](N(C)C)[C@H]2O)[C@](C)(O)C[C@@H](C)CN(C)[C@H](C)[C@H]2OC(=O)O[C@@]21C` [Example 25, 4″-O-{3-[2-(3-Carboxy-7-chloro-1-cyclopropyl-4-oxo-1,4-dihydro-quinolin-6-yloxy)-ethoxy]-propionyl}-azithromycin11,12-carbonate], the MIC (with E. faecalis ATCC 29212; in assay [2]; in the assay on S. pneumoniae SP030; with S. pyogenes 3565) was not above 1 µg/mL in each case.
As to `CC[C@H]1OC(=O)[C@H](C)[C@@H](O[C@H]2C[C@@](C)(OC)[C@@H](OC(=O)CCOCCNc3cc4c(=O)c(C(=O)O)cn(C5CC5)c4cc3Cl)[C@H](C)O2)[C@H](C)[C@@H](O[C@@H]2O[C@H](C)C[C@H](N(C)C)[C@H]2O)[C@](C)(OC)C[C@@H](C)C(=O)[C@H](C)[C@@H](O)[C@]1(C)O` [Example 36, 4″-O-{3-[2-(3-Carboxy-7-chloro-1-cyclopropyl-4-oxo-1,4-dihydro-quinolin-6-ylamino)ethoxy]propionyl}-6-O-methyl-erythromycin A], the MIC (against E. faecalis ATCC 29212; in assay [2]; with S. pneumoniae SP030; in the assay with S. pyogenes 3565) was not above 1 µg/mL throughout.
With `CC[C@@H]1OC(=O)[C@H](C)[C@H](O[C@@H]2C[C@@](C)(OC)[C@H](OC(=O)CCOCCOc3cc4c(=O)c(C(=O)O)cn(C5CC5)c4cc3Cl)[C@H](C)O2)[C@@H](C)[C@H](O[C@@H]2O[C@H](C)C[C@H](N(C)C)[C@@H]2O)[C@@](C)(OC)C[C@H](C)C(=O)[C@H](C)[C@@H](O)[C@]1(C)O` [Example 37, 4″-O-{3-[2-(3-Carboxy-7-chloro-1 cyclopropyl-4-oxo-1,4-dihydro-quinolin-6-yloxy)ethoxy]propionyl}-6-O-methyl-erythromycin A], the MIC (against E. faecalis ATCC 29212; in assay [2]; in the assay on S. pneumoniae SP030; against S. pyogenes 3565) was not above 1 µg/mL throughout.
